The source made the active and inactive calls. The calls are words filed in the database; no cut-off is given here.
Experiments:
SW-620 [1] = experiment: Up regulation of caspase-3 mRNA expression in human SW620 cells incubated for 48 hrs by qRT-PCR analysis; format: functional, cell-based
SOX2 promoter DNA [2] = experiment: Binding affinity to SOX2 promoter 5'-CTTTGTT-3' DNA in human SW620 cells assessed as downregulation WNT2B mRNA expression incubated for 48 hrs by qRT-PCR analysis; format: cell-based; conditions: SW-620
SW-620 [3] = experiment: Cell cycle arrest in human SW620 cells assessed as reduction in accumulation at G2/M phase at 2 uM to 5 uM after 48 hrs by propidium iodide staining based flow cytometry analysis; format: functional
SOX2 promoter DNA [4] = experiment: Binding affinity to SOX2 promoter 5'-CTTTGTT-3' DNA in human SW620 cells assessed as downregulation DVL3 mRNA expression incubated for 48 hrs by qRT-PCR analysis; format: cell-based; conditions: SW-620
SOX2 promoter DNA [5] = experiment: Binding affinity to SOX2 promoter 5'-CTTTGTT-3' DNA in mouse B16 cells assessed as reduction in SOX2 mRNA expression incubated for 48 hrs by qRT-PCR analysis; format: cell-based
SOX2 promoter DNA [6] = experiment: Binding affinity to SOX2 promoter 5'-CTTTGTT-3' DNA in mouse EG7 cells assessed as reduction in SOX2 mRNA expression incubated for 48 hrs by qRT-PCR analysis; format: cell-based
SW-620 [7] = experiment: Up regulation of GADD45A mRNA expression in human SW620 cells incubated for 48 hrs by qRT-PCR analysis; format: functional, cell-based
SOX2 promoter DNA [8] = experiment: Binding affinity to SOX2 promoter 5'-CTTTGTT-3' DNA in human SW620 cells assessed as downregulation DVL2 mRNA expression incubated for 48 hrs by qRT-PCR analysis; format: cell-based; conditions: SW-620
SW-620 [9] = experiment: Up regulation of FAS mRNA expression in human SW620 cells incubated for 48 hrs by qRT-PCR analysis; format: functional, cell-based
MCF7 [10] = experiment: Cytotoxicity against human MCF7 cells assessed as reduction in cell viability incubated for 48 hrs by MTT assay; format: functional, cell-based
SOX2 promoter DNA [11] = experiment: Binding affinity to SOX2 promoter 5'-CTTTGTT-3' DNA in human SW620 cells assessed as down regulation of ALDH1A1 gene expression at 2 uM incubated for 48 hrs by Cy3-labelled cRNA-based microarray analysis; format: cell-based; conditions: SW-620
SOX2 promoter DNA [12] = experiment: Binding affinity to SOX2 promoter 5'-CTTTGTT-3' DNA in human SW620 cells assessed as reduction in SOX2 protein level by measuring SOX2 level at 5 uM incubated for 48 hrs by immunostaining based FACS analysis (reference value: 55.9%); format: cell-based; design: scale not given: the % may be the effect or the level left; conditions: SW-620
SOX2 promoter DNA [13] = experiment: Binding affinity to SOX2 promoter 5'-CTTTGTT-3' DNA in human SW620 cells assessed as downregulation beta-catenin mRNA expression incubated for 48 hrs by qRT-PCR analysis; format: cell-based; conditions: SW-620
MKN-45 = experiment: Cytotoxicity against human MKN45 cells assessed as reduction in cell viability incubated for 48 hrs by MTT assay; format: functional, cell-based
MCF7 [14] = experiment: Cell cycle arrest in human MCF7 cells assessed as reduction in accumulation at S phase at 2 uM to 5 uM after 48 hrs by propidium iodide staining based flow cytometry analysis; format: functional
SW-620 [15] = experiment: Up regulation of TP73 mRNA expression in human SW620 cells incubated for 48 hrs by qRT-PCR analysis; format: functional, cell-based
SOX2 promoter DNA [16] = experiment: Binding affinity to SOX2 promoter 5'-CTTTGTT-3' DNA in human SW620 cells assessed as down regulation of DOCK1 mRNA expression at 2 uM incubated for 48 hrs by qRT-PCR analysis; format: cell-based; conditions: SW-620
SOX2 promoter DNA [17] = experiment: Binding affinity to SOX2 promoter 5'-CTTTGTT-3' DNA in human SW620 cells assessed as down regulation of […] mRNA expression at 2 uM incubated for 48 hrs by qRT-PCR analysis; format: cell-based; conditions: SW-620
SOX2 promoter DNA [18] = experiment: Binding affinity to SOX2 promoter 5'-CTTTGTT-3' DNA in human SW620 cells assessed as downregulation S100A4 mRNA expression incubated for 48 hrs by qRT-PCR analysis; format: cell-based; conditions: SW-620
U2OS [19] = experiment: Cell cycle arrest in human U2OS cells assessed as reduction in accumulation at S phase at 2 uM to 5 uM after 48 hrs by propidium iodide staining based flow cytometry analysis; format: functional
SOX2 promoter DNA [20] = experiment: Binding affinity to SOX2 promoter 5'-CTTTGTT-3' DNA (unknown origin) transfected in human SW620 cells at 2 to 10 uM incubated for 24 hrs by 6xO/s-Luc reporter gene based Steady-Glo luciferase assay; format: cell-based; conditions: SW-620
SOX2 promoter DNA [21] = experiment: Binding affinity to SOX2 promoter 5'-CTTTGTT-3' DNA in human SW620 cells assessed as down regulation of Cyclin D1 gene expression at 2 uM incubated for 48 hrs by Cy3-labelled cRNA-based microarray analysis; format: cell-based; conditions: SW-620
SOX2 promoter DNA [22] = experiment: Binding affinity to SOX2 promoter 5'-CTTTGTT-3' DNA in human SW620 cells assessed as down regulation of stemness associated BMP-4 mRNA expression at 2 uM incubated for 48 hrs by qRT-PCR analysis; format: cell-based; conditions: SW-620
SW-620 [23] = experiment: Cell cycle arrest in human SW620 cells assessed as reduction in accumulation at S phase at 2 uM to 5 uM after 48 hrs by propidium iodide staining based flow cytometry analysis; format: functional
SOX2 promoter DNA [24] = experiment: Binding affinity to SOX2 promoter 5'-CTTTGTT-3' DNA in human SW620 cells assessed as down regulation of JAG1 gene expression at 2 uM incubated for 48 hrs by Cy3-labelled cRNA-based microarray analysis; format: cell-based; conditions: SW-620
SOX2 promoter DNA [25] = experiment: Binding affinity to SOX2 promoter 5'-CTTTGTT-3' DNA in human SW620 cells assessed as upregulation of GSK3-beta mRNA expression incubated for 48 hrs by qRT-PCR analysis; format: cell-based; conditions: SW-620
U2OS [26] = experiment: Cell cycle arrest in human U2OS cells assessed as increase in accumulation at sub-G1/G1 phase at 2 uM to 5 uM after 48 hrs by propidium iodide staining based flow cytometry analysis; format: functional
SOX2 promoter DNA [27] = experiment: Binding affinity to SOX2 promoter 5'-CTTTGTT-3' DNA in mouse GL261 cells assessed as reduction in SOX2 mRNA expression incubated for 48 hrs by qRT-PCR analysis; format: cell-based
SOX2 promoter DNA [28] = experiment: Binding affinity to SOX2 promoter 5'-CTTTGTT-3' DNA in human SW620 cells assessed as down regulation of NFKB1 mRNA expression at 2 uM incubated for 48 hrs by qRT-PCR analysis; format: cell-based; conditions: SW-620
SOX2 promoter DNA [29] = experiment: Binding affinity to SOX2 promoter 5'-CTTTGTT-3' DNA in human SW620 cells assessed as down regulation of ZEB2 mRNA expression at 2 uM incubated for 48 hrs by qRT-PCR analysis; format: cell-based; conditions: SW-620
SOX2 promoter DNA [30] = experiment: Binding affinity to SOX2 promoter 5'-CTTTGTT-3' DNA in human SW620 cells assessed as upregulation of CDKN2B mRNA expression incubated for 48 hrs by qRT-PCR analysis; format: cell-based; conditions: SW-620
SW-620 [31] = experiment: Cell cycle arrest in human SW620 cells assessed as increase in accumulation at sub-G1/G1 phase at 2 uM to 5 uM after 48 hrs by propidium iodide staining based flow cytometry analysis; format: functional
SOX2 promoter DNA [32] = experiment: Binding affinity to SOX2 promoter 5'-CTTTGTT-3' DNA in human SW620 cells assessed as down regulation of stemness associated KLF4 mRNA expression at 2 uM incubated for 48 hrs by qRT-PCR analysis; format: cell-based; conditions: SW-620

## CC(=O)Nc1cc(C(=O)Nc2cc(C(=O)Nc3cc(C(=O)NCCC(=O)Nc4cn(C)c(C(=O)Nc5cc(C(=O)NCCCC(=O)Nc6cc(C(=O)Nc7cc(C(=O)NCCC(=O)Nc8cc(C(=O)Nc9cc(C(=O)Nc%10cn(C)c(C(=O)NCCCN(C)C)n%10)n(C)c9)n(C)c8)n(C)c7)n(C)c6)n(C)c5)n4)n(C)c3)n(C)c2)n(C)c1
SW-620 [1]
  Activity: Active
SOX2 promoter DNA [2]
  Activity: Active
SW-620 [3]
  Activity: Active
SOX2 promoter DNA [4]
  Activity: Active
SOX2 promoter DNA [5]
  Activity: Active
SOX2 promoter DNA [6]
  Activity: Active
SW-620 [7]
  Activity: Active
SOX2 promoter DNA [8]
  Activity: Active
SW-620 [9]
  Activity: Active
MCF7 [10]
  Activity: Dose-dependent effect
SOX2 promoter DNA [11]
  Activity: Active
SOX2 promoter DNA [12]
  Activity: 28.1%
SOX2 promoter DNA [13]
  Activity: Active
MKN-45
  Activity: Dose-dependent effect
MCF7 [14]
  Activity: Active
SW-620 [15]
  Activity: Active
SOX2 promoter DNA [16]
  Activity: Active
SOX2 promoter DNA [17]
  Activity: Active
SOX2 promoter DNA [18]
  Activity: Active
U2OS [19]
  Activity: Active
SOX2 promoter DNA [20]
  Activity: Active
SOX2 promoter DNA [21]
  Activity: Active
SOX2 promoter DNA [22]
  Activity: Active
SW-620 [23]
  Activity: Active
SOX2 promoter DNA [24]
  Activity: Active
SOX2 promoter DNA [25]
  Activity: Active
U2OS [26]
  Activity: Active
SOX2 promoter DNA [27]
  Activity: Active
SOX2 promoter DNA [28]
  Activity: Active
SOX2 promoter DNA [29]
  Activity: Active
SOX2 promoter DNA [30]
  Activity: Active
SW-620 [31]
  Activity: Active
SOX2 promoter DNA [32]
  Activity: Active
